Experimental findings from US11312690B2, “Compounds, compositions, methods for treating diseases, and methods for preparing compounds” (UNIVERSITY OF LOUISVILLE RESEARCH FOUNDATION, INC., priority 2015, dated 2022) are described below.

The test system of one test is Ral. Put plainly: Endogenous Ral activation in cells with endogenous hyper-activated Ras (RalBP1 pull down kit). The class given is cell-based. Conditions: 10 μM, untransfected cells, FIG. 4. On the procedure:
(§1) Specific Inhibition of endogenous Ras/RalGEF signaling. FIG. 4. Specific suppression of Ral activation by some compounds of Formula (I). Cells with endogenous hyper-activated Ras were assayed for endogenous Ral activation in the presence or absence of inhibitor (10 μM) using a Cell Biolabs (SanDiego Calif.) kit. Compound I-1 was dissolved in DMSO; DMSO serves as the carrier negative control. IP is immunoprecipitation. IB is immunoblot. Cell lysates were then assayed for the levels of MAPK pathway activation using a phosphoERK antibody. They were the same. Actin is a loading control.
(§2) RalGEFs drive Ral into the active, GTP bound form so it can bind its effector RalBP1. […] Commercially available kits available from several vendors use RalBP1 attached to beads as an affinity reagent specific to the active form of Ral. By measuring the level of activated Ral and comparing it to the total levels of Ral, it is possible to measure the state of endogenous Ral activation. We assayed untransfected cells containing endogenous hyper-activated Ras for the effects of compound I-1 treatment on endogenous levels of active Ral levels.

For a further test, the system named is Ras/Raf/MAPK pathway. Put plainly: MAPK pathway activation by phosphoERK antibody in cells with endogenous hyper-activated Ras. The following applies: 10 μM. It counts as cell-based. The protocol: as §1, §2
Test [1] deals with LNCaP clone FGC (prostate cancer). Put plainly: Tumorigenic phenotype in vitro, Ras driven tumor cell line. The class given is cell-based. The following applies: data not shown. The source says: (§3) (ATCC® HTB-75™)(ovarian cancer); D283 Med (ATCC® HTB-185™) (Medulloblastoma); A549 (ATCC® CCL-185™) (lung cancer); and LNCaP clone FGC (ATCC® CRL1740™) (prostate cancer).
In test [2] the test system is Caov-3 [Caov3] (ovarian cancer). The test is described as above. It counts as cell-based. Conditions: data not shown.
Description: as §3

Test [3] concerns D283 Med (Medulloblastoma). The description is as above. The following applies: data not shown. The class given is cell-based.
Description: as §3

A further test has as its system A549 (lung cancer). Described as above. The class given is cell-based. The following applies: data not shown.
Description: as §3

Test [4] has as its target T1, interaction of K-Ras with RalGDS (Homo sapiens, UniProt Q12967).
T1 construct: expressed in transfected cells; host or cells: HEK-293
T1 sequence (Q12967 1-914): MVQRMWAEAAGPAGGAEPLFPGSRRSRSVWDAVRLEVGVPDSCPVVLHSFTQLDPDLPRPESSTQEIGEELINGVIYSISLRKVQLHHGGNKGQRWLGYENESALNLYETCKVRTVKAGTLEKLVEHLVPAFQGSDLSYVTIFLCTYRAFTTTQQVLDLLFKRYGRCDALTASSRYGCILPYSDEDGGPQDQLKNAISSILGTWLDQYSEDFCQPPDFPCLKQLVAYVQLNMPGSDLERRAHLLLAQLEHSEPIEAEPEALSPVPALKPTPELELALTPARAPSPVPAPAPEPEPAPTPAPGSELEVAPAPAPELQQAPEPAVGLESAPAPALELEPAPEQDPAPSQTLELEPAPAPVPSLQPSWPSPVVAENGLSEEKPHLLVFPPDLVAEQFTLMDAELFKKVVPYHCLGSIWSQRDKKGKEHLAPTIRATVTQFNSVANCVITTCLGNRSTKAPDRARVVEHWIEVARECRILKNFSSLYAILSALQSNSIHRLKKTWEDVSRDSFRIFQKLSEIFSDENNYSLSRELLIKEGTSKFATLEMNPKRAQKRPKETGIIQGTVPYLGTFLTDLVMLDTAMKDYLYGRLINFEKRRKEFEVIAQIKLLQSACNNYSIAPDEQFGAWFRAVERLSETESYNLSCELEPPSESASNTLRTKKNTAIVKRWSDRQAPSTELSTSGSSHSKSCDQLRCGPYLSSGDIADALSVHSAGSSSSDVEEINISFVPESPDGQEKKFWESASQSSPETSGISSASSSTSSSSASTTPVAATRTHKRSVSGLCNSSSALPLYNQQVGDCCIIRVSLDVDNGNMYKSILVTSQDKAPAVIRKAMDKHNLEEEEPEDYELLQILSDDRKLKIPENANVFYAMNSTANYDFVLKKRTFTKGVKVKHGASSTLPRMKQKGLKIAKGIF
Put plainly: Ras/RalGEF binding, immunoprecipitation and immunoblot from co-transfected HEK-293 cells. Conditions: 10 μM, HA K-Ras 12v and GFP-RalGDS, IP/IB, FIG. 3A. (Immunoblotting shows a protein as a band on a membrane.)

The test system of the next test is MiaPaCa-2. Put plainly: Soft agar colony formation. It counts as cell-based, human. On the procedure:
FIG. 1. Effects of some compounds of Formula (I) on RalGEF inhibitor on soft agar growth and normal growth in 2D of pancreatic carcinoma cell lines. In FIGS. 1A and 1B, Panc-1 (ATCC® CRL-1469™) and MiaPaCa-2 (ATCC® CRL-1420™) mutant Ras containing pancreatic tumor cell lines were plated in soft agar in the presence of 10 μM or 0.9 μM of compound I-1 and scored for the formation of colonies. In FIGS. 1C and 1D, compound I-1 was then tested for the ability to inhibit cell growth on the same cell lines under normal 2D growth conditions on plastic. “0” is the carrier. Cells were seeded at the same density and scored after two weeks in culture.
Human pancreatic tumor cell lines MiaPaca-2 and Panc-1 contain activated K-Ras and were used in the initial screen to identify compound I-1. Soft agar colony formation remains an established in vitro assay to predict tumorigenicity and was used to predict tumorigenicity for compound I-1.
Several other compounds were tested against the Mia Paca-2 cell line using the soft agar colony formation in vitro assay in two experiments. For each table, DMSO was used as a control and, as such, within each table, the DMSO colonies are the measure against which each measurement in the corresponding table is compared.

Turning to `COc1cccc(CNc2nc(CN(C)Cc3cccc(OC)c3)nc3sc(C)c(C)c23)c1` [Compound I-1], the “levels of endogenous active Ral (GTP bound)” value in the test on Ral is recorded as “suppressed the levels of endogenous active Ral”. Further, in the test with Ras/Raf/MAPK pathway, the “Ras/Raf/MAPK pathway activation (levels of phospho ERK)” value was “no inhibition of the Ras/Raf/MAPK pathway activation was detected”. Further, the “tumorigenic phenotype in vitro” value in test [1] is on record as “blocks the tumorigenic phenotype in vitro”; in test [2], “blocks the tumorigenic phenotype in vitro”; in test [3] it was “blocks the tumorigenic phenotype in vitro”; in the test with A549 (lung cancer) it was “blocks the tumorigenic phenotype in vitro”; with MiaPaCa-2 (FIG. 1B), “blocks the tumorigenic phenotype in vitro at low μM or sub μM levels”. The “stable association of Ras and RalGDS” value in test [4] was “inhibited the stable association of Ras and RalGDS”. The “ability of the cells to grow in soft agar” value in the test on MiaPaCa-2 (10 μM, FIG. 1B) was “almost completely blocked”. For the same compound, the Colonies in agar is given as 0 ± 0 with MiaPaCa-2 (10 μM, Table 2 experiment, DMSO control 182 ± 7 colonies) and 12 ± 1 in the test with MiaPaCa-2 (10 μM, Table 3 experiment, DMSO control 1686 ± 114 colonies). For the same compound, the IC50 with MiaPaCa-2 (Homo sapiens, MIA PaCa-2, read-out: IC50 (concentration that inhibits 50% of colony formation)) was less than 1000 nM.
